Molecular target: GST-tagged truncated human mutant G2019S LRRK2 (Homo sapiens (Human), UniProt Q5S007, G2019S)
Assay: LRRK2 G2019S Km ATP LanthaScreen Assay
Assay type: biochemical
Conditions: 134 μM ATP (Km ATP); fluorescein-labeled LRRKtide substrate; mean IC50 values
Method: The IC50 values reported herein were measured as follows.
Biological Assay: LRRK2 Km ATP LanthaScreen™ Assay
The data presented for the Km ATP LanthaScreen™ Assay represents mean IC50 values based on several test results and may have reasonable deviations depending on the specific conditions and reagents used. Assays were performed in the presence of 134 μM ATP (Km ATP). Upon completion, the assay was stopped and phosphorylated substrate detected with a terbium (Tb)-labeled anti-pERM antibody (cat. no. PV4898). The compound dose response was prepared by diluting a 10 mM stock of compound to a maximum concentration of […] in 100% dimethylsulfoxide followed by custom fold serial dilution in dimethylsulfoxide nine times. Twenty nanoliters of each dilution was spotted via a Labcyte Echo onto a 384-well black-sided plate (Corning 3575) followed by 15 μl of a 1.25 nM enzyme solution in 1× assay buffer (50 mM Tris pH 8.5, 10 mM MgCl2, 0.01% Brij-35, 1 mM EGTA, 2 mM dithiothreitol, 0.05 mM sodium orthovanadate). Following a 15-minute incubation at room temperature, the kinase reaction was started with the addition of 5 μl of 400 nM fluorescein-labeled LRRKtide peptide substrate and 134 μM ATP solution in 1× assay buffer. The reaction was allowed to progress at ambient temperature for 90 minutes. The reaction was then stopped by the addition of 20 μl of TR-FRET Dilution Buffer (Life Technologies, Carlsbad, Calif.) containing 2 nM Tb-labeled anti-phospho LRRKtide antibody and 10 mM EDTA (Life Technologies, Carlsbad, Calif.). After an incubation of 1 hour at room temperature, the plate was read on an EnVision multimode plate reader (Perkin Elmer, Waltham, Mass.) with an excitation wavelength of 337 nm (Laser) and a reading emission at both 520 and 495 nm. […] Abase uses a 4 parameter (4P) logistic fit based on the Levenberg-Marquardt algorithm.

Chain of GST-tagged truncated human mutant G2019S LRRK2 (Q5S007 970-2527 G2019S): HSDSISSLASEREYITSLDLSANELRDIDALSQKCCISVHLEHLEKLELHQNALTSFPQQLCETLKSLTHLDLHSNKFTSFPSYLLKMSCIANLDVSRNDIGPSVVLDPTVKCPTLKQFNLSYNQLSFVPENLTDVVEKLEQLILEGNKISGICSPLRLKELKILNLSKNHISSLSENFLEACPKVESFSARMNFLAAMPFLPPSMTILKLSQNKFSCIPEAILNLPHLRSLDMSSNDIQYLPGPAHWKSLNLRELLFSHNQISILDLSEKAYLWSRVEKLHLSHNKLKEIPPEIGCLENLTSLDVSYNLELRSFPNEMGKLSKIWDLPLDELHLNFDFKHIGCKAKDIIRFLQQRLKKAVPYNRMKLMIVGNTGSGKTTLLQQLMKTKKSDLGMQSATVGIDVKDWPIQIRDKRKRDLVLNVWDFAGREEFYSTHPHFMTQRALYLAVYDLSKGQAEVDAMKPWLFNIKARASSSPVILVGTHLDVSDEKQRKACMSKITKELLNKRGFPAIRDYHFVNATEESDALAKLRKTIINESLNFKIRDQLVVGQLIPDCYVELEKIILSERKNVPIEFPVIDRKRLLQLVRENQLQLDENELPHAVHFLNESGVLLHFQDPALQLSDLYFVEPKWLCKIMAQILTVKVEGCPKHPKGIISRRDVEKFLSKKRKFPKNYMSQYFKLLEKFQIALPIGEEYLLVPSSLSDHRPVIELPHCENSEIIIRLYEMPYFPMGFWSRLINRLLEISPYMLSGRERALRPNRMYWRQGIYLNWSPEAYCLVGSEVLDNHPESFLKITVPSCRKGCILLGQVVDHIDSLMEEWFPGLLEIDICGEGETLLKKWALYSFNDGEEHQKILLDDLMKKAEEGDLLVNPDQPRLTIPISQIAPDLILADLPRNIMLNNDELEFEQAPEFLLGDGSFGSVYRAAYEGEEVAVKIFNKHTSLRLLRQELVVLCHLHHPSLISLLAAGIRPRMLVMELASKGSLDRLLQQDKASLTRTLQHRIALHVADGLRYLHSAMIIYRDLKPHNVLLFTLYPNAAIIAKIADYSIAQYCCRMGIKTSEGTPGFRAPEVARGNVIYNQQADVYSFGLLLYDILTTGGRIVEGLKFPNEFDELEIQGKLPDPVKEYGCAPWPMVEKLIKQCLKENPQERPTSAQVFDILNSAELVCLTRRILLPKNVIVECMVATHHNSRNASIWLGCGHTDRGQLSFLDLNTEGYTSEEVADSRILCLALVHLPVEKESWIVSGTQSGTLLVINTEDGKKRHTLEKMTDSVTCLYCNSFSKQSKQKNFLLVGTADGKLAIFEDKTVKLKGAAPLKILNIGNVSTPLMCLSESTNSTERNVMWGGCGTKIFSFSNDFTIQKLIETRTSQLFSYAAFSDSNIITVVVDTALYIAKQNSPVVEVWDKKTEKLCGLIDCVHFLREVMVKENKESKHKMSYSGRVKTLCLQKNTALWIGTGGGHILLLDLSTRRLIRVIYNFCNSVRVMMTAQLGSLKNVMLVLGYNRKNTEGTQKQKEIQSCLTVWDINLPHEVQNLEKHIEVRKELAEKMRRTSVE

Compound	IC50
Cc1nc(N2CC3(CN(CC(F)(F)F)C3)C2)cc(-n2ncc3cnc(C4(C#N)CC45CC5)cc32)n1 (single isomer, unassigned) [Example 12.1, (S or R)-1-(1-(2-methyl-6-(6-(2,2,2-trifluoroethyl)-2,6-diazaspiro[3.3]heptan-2-yl)pyrimidin-4-yl)-1H-pyrazolo[4,3-c]pyridin-6-yl)spiro[2.2]pentane-1-carbonitrile]	2.1 nM
N#C[C@@]1(c2ccc3cnn(-c4cc(N5CCOC(CO)C5)ncn4)c3c2)CC12CC2 (stereo in doubt) [Example 4.9-1, 1-(1-(6-(2-(hydroxymethyl)morpholino)pyrimidin-4-yl)-1H-indazol-6-yl)spiro[2.2]pentane-1-carbonitrile]	0.6 nM
CC(C)(O)[C@@H]1CCN(c2cc(-n3ncc4ccc([C@]5(C#N)CC56CC6)cc43)ncn2)C1 [Example 1.4-2, (S)-1-(1-(6-((R)-3-(2-hydroxypropan-2-yl)pyrrolidin-1-yl)pyrimidin-4-yl)-1H-indazol-6-yl)spiro[2.2]pentane-1-carbonitrile]	0.9 nM
N#CC1(c2ccc3cnn(-c4cc(N5CC6(CCOC6)C5)ncn4)c3c2)CC12CC2 (stereo not shown) [Example 1.5]	0.9 nM
CNc1nc(N2CC[C@@H](C(C)(C)O)C2)cc(-n2ncc3ccc(C4(C#N)CC45CC5)cc32)n1 (stereo partly drawn) [Example 2.6-1, 1-(1-(6-((R)-3-(2-hydroxypropan-2-yl)pyrrolidin-1-yl)-2-(methylamino)pyrimidin-4-yl)-1H-indazol-6-yl)spiro[1.2.2]pentane-1-carbonitrile]	0.8 nM
C[C@@H]1CN(c2cc(-n3ncc4ccc([C@]5(C#N)CC56CC6)cc43)ncn2)CCN1C1COC1 [Example 3.1-2]	0.6 nM
C[C@@H]1CN(c2cc(-n3ncc4ccc([C@]5(C#N)CC56CC6)cc43)ncn2)C[C@H](C)[C@]1(C)O [Example 3.2]	1.1 nM
COCc1nc(N2C[C@@H](C)[C@@](C)(O)[C@@H](C)C2)cc(-n2ncc3ccc([C@]4(C#N)CC45CC5)cc32)n1 [Example 3.3]	1 nM
COc1nc(N2C[C@@H](C)[C@@](C)(O)[C@@H](C)C2)cc(-n2ncc3ccc([C@]4(C#N)CC45CC5)cc32)n1 [Example 3.4]	1.5 nM
C[C@H]1CN(c2cc(-n3ncc4ccc([C@]5(C#N)CC56CC6)cc43)ncn2)CCN1C1CCOC1 (stereo partly shown) [Example 3.8-4]	0.6 nM
CC1(O)CC2(CN(c3cc(-n4ncc5ccc([C@@]6(C#N)CC67CC7)cc54)ncn3)C2)C1 [Example 3.9-1]	2.5 nM
CC1(O)CC2(CN(c3cc(-n4ncc5ccc([C@]6(C#N)CC67CC7)cc54)ncn3)C2)C1 [Example 3.9-2]	1.5 nM
C[C@@H]1CN(c2cc(-n3ncc4ccc([C@]5(C#N)CC56CC6)cc43)ncn2)C[C@H](C)N1C1COC1 [Example 4.1]	0.6 nM
CC1(O)CN(c2cc(-n3ncc4ccc([C@]5(C#N)CC56CC6)cc43)ncn2)C1 [Example 4.2]	1.3 nM
CC(C)(O)C1CN(c2cc(-n3ncc4ccc([C@]5(C#N)CC56CC6)cc43)ncn2)C1 [Example 4.4]	0.6 nM
COCc1nc(N2CC(OC)C2)cc(-n2ncc3ccc([C@]4(C#N)CC45CC5)cc32)n1 [Example 4.5]	2.6 nM
COCc1nc(N2C[C@@H](C)N(C3COC3)[C@@H](C)C2)cc(-n2ncc3ccc([C@]4(C#N)CC45CC5)cc32)n1 [Example 4.6]	0.9 nM
CS(=O)(=O)N1CCN(c2cc(-n3ncc4ccc([C@]5(C#N)CC56CC6)cc43)ncn2)CC1 [Example 4.7]	1.3 nM
C[C@H]1CN(c2cc(-n3ncc4ccc([C@]5(C#N)CC56CC6)cc43)ncn2)CCN1S(C)(=O)=O [Example 4.8]	1.2 nM
COCc1nc(N2C[C@@H](C)[C@@](C)(O)[C@@H](C)C2)cc(-n2ncc3ccc([C@]4(C#N)CC45CC5)cc32)n1 [Example 4.10]	0.6 nM
COCc1nc(N2CCN(C3COC3)[C@H](C)C2)cc(-n2ncc3ccc([C@]4(C#N)CC45CC5)cc32)n1 [Example 4.11-1]	1.3 nM
COCc1nc(N2CCN(C3COC3)[C@@H](C)C2)cc(-n2ncc3ccc([C@]4(C#N)CC45CC5)cc32)n1 [Example 4.11-2]	0.7 nM
CC(C)(O)[C@H]1CN(c2cc(-n3ncc4ccc([C@]5(C#N)CC56CC6)cc43)ncn2)C[C@H]1F [Example 4.12-1]	1.2 nM
CC(C)(O)[C@@H]1CN(c2cc(-n3ncc4ccc([C@]5(C#N)CC56CC6)cc43)ncn2)C[C@@H]1F [Example 4.12-2]	0.6 nM
CN1CCOC2(C1)CN(c1cc(-n3ncc4ccc([C@]5(C#N)CC56CC6)cc43)ncn1)C2 [Example 4.13]	0.6 nM

Compound	IC50
CS(=O)(=O)N1CCN(c2cc(-n3ncc4ccc([C@]5(C#N)CC56CC6)cc43)ccn2)CC1 [Example 4.14]	2.8 nM
Cc1nc(N2CC3(C(C)(C)O)CC2C3)cc(-n2ncc3c(F)cc(C4(C#N)CC45CC5)cc32)n1 (stereo not shown) [Example 4.16]	0.6 nM
Cc1nc(N2CCN3CCOC[C@@H]3C2)cc(-n2ncc3ccc([C@]4(C#N)CC45CC5)cc32)n1 [Example 4.17]	0.6 nM
N#C[C@@]1(c2ccc3cnn(-c4cc(C5CCN(C6COC6)CC5)ncn4)c3c2)CC12CC2 [Example 4.18]	18.7 nM
Cc1cc(-n2ncc3ccc([C@]4(C#N)CC45CC5)cc32)nc(N)n1 [Example 4.19]	0.6 nM
N#C[C@@]1(c2ccc3cnn(-c4cc(C5CC5)ncn4)c3c2)CC12CC2 [Example 4.21]	6.5 nM
Cc1cc(-n2ncc3ccc([C@]4(C#N)CC45CC5)cc32)nc(C2CC2)n1 [Example 4.23]	3.2 nM
COCc1nc(C)cc(-n2ncc3ccc([C@]4(C#N)CC45CC5)cc32)n1 [Example 4.24]	10.3 nM
CNc1nc(C)cc(-n2ncc3ccc([C@]4(C#N)CC45CC5)cc32)n1 [Example 4.25]	3.5 nM
CCc1cc(-n2ncc3ccc([C@]4(C#N)CC45CC5)cc32)nc(C)n1 [Example 4.26]	3.1 nM
CCc1nc(C)cc(-n2ncc3ccc([C@]4(C#N)CC45CC5)cc32)n1 [Example 4.27]	3.2 nM
CC(C)(O)C12CC(C1)N(c1cc(-n3ncc4ccc([C@@]5(C#N)CC56CC6)cc43)ccn1)C2 [Example 6.1-2]	5.3 nM
CC(C)(O)[C@@H]1CCN(c2cc(-n3ncc4ccc([C@@]5(C#N)CC56CC6)cc43)ccn2)C1 [Example 6.2-1]	1.8 nM
CC(C)(O)[C@@H]1CCN(c2cc(-n3ncc4ccc([C@]5(C#N)CC56CC6)cc43)ccn2)C1 [Example 6.2-2]	0.9 nM
CC(C)(O)C12CC(C1)N(c1cc(-n3ncc4ccc([C@]5(C#N)CC56CC6)cc43)cc(F)n1)C2 [Example 6.3]	15 nM
C[C@H]1CN(c2cc(-n3ncc4ccc([C@]5(C#N)CC56CC6)cc43)cc(F)n2)CCN1C1COC1 [Example 6.4]	6.8 nM
C[C@H]1CN(c2cc(-n3ncc4ccc([C@]5(C#N)CC56CC6)cc43)ccn2)CCN1S(C)(=O)=O [Example 6.5]	1.5 nM
CC(C)(O)C12CC(C1)N(c1cc(-n3ncc4ccc([C@]5(C#N)CC56CC6)cc43)nc(N3CCC3)n1)C2 [Example 8.5, (S)-1-(1-(2-(azetidin-1-yl)-6-(4-(2-hydroxypropan-2-yl)-2-azabicyclo[2.1.1]hexan-2-yl)pyrimidin-4-yl)-1H-indazol-6-yl)spiro[2.2]pentane-1-carbonitrile]	9.8 nM
Cc1nc(N2CCN(C3(C)COC3)CC2)cc(-n2ncc3ccc([C@]4(C#N)CC45CC5)cc32)n1 [Example 11.1, (S)-1-(1-(2-methyl-6-(4-(3-methyloxetan-3-yl)piperazin-1-yl)pyrimidin-4-yl)-1H-indazol-6-yl)spiro[2.2]pentane-1-carbonitrile]	0.6 nM
Cc1nc(N2CC3(C2)CN(C2COC2)C3)cc(-n2ncc3ccc([C@]4(C#N)CC45CC5)cc32)n1 [Example 11.3]	454 nM
Cc1nc(N2C[C@@H]3C[C@H]2CN3C2(C)COC2)cc(-n2ncc3ccc([C@]4(C#N)CC45CC5)cc32)n1 [Example 11.4]	8.6 nM
Cc1cc(-n2ncc3ccc([C@]4(C#N)CC45CC5)cc32)cc(C)n1 [Example 11.5]	7.8 nM
Cc1cc(-n2ncc3ccc([C@]4(C#N)CC45CC5)cc32)ncn1 [Example 11.7]	7.4 nM
Cc1nc(N2CC3(CN(CC(F)(F)F)C3)C2)cc(-n2ncc3ccc(C4(C#N)CC45CC5)cc32)n1 (stereo not shown) [Example 12.2]	28.4 nM

Reference: patent US11161854B2, “Indazolyl-spiro[2.2]pentane-carbonitrile derivatives as LRRK2 inhibitors, pharmaceutical compositions, and uses thereof” (Merck Sharp & Dohme Corp., priority 2017, dated 2021)
